# Measured values taken from patent publication US20240002391A1, “4-ALKOXYPYRROLO[2,1-F][1,2,4]TRIAZINES AND PREPARATION AND USES THEREOF” (BioSplice Therapeutics, Inc., priority 2022, published 2024).
# Target: recombinant DYRK1A kinase (Homo sapiens (Human), UniProt Q13627)
# Assay: DYRK1A kinase assay (Ser/Thr 18 peptide Z-lyte FRET)
# Type: biochemical
# Settings: DYRK1A kinase activity, Z-lyte Ser/Thr 18 peptide, 15 μM ATP; method text calls the value IC50; read-out: EC50 (the source's name)
# Outline: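 Z-lyte FRET read-out: coumarin (Em 455) over fluorescein (Em 520) emission ratio, converted to percent phosphorylation after 1 h development. Reaction: 0.25 μg/mL kinase, 15 μM ATP, 4 μM peptide, 1 h RT with compound, duplicate wells. IC50s fitted by non-linear regression.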
row,Compound,IC50
1,"COc1nc(N[C@@H]2CCN(C3COC3)C[C@@H]2F)nn2ccc(-c3ccc4nnn(CC(F)F)c4c3)c12 [Compound 761, 5-(1-(2,2-Difluoroethyl)-1H-benzo[d][1,2,3]triazol-6-yl)-N-((3S,4R)-3-fluoro-1-(oxetan-3-yl)piperidin-4-yl)-4-methoxypyrrolo[2,1-f][1,2,4]triazin-2-amine]",1.7 nM
2,"COc1nc(N[C@H]2CC[C@H](O)CC2)nn2ccc(-c3ccc4nnn(CC(F)F)c4c3)c12 [Compound 719, trans-4-((5-(1-(2,2-Difluoroethyl)-1H-benzo[d][1,2,3]triazol-6-yl)-4-methoxypyrrolo[2,1-f][1,2,4]triazin-2-yl)amino)cyclohexan-1-ol]",0.3 nM
3,"COc1nc(NC2CCC3(CC2)CC3)nn2ccc(-c3cnc4nccn4c3)c12 [Compound 977, 5-(Imidazo[1,2-a]pyrimidin-6-yl)-4-methoxy-N-(spiro[2.5]octan-6-yl)pyrrolo[2,1-f][1,2,4]triazin-2-amine]",1.8 nM
4,"COc1nc(N[C@H]2CCN(C(C)=O)C[C@H]2F)nn2ccc(-c3ccc4ncccc4c3)c12 [Compound 1047, 1-((3R,4S)-3-Fluoro-4-((4-methoxy-5-(quinolin-6-yl)pyrrolo[2,1-f][1,2,4]triazin-2-yl)amino)piperidin-1-yl)ethan-1-one]",2.1 nM
5,"COc1nc(N[C@H]2CC[C@@](C)(O)CC2)nn2ccc(-c3ccc4nccnc4c3)c12 [Compound 345, cis-4-((4-Methoxy-5-(quinoxalin-6-yl)pyrrolo[2,1-f][1,2,4]triazin-2-yl)amino)-1-methylcyclohexan-1-ol]",3.7 nM
6,"COc1nc(N[C@H]2CCN(S(C)(=O)=O)C[C@H]2F)nn2ccc(-c3ccc4nnn(CC(F)F)c4c3)c12 [Compound 1145, 5-(1-(2,2-Difluoroethyl)-1H-benzo[d][1,2,3]triazol-6-yl)-N-((3R,4S)-3-fluoro-1-(methylsulfonyl)piperidin-4-yl)-4-methoxypyrrolo[2,1-f][1,2,4]triazin-2-amine]",1.4 nM
7,"COc1nc(N[C@H]2CCN(CCF)C[C@H]2F)nn2ccc(-c3ccc4ncccc4c3)c12 [Compound 314, N-((3R,4S)-3-Fluoro-1-(2-fluoroethyl)piperidin-4-yl)-4-methoxy-5-(quinolin-6-yl)pyrrolo[2,1-f][1,2,4]triazin-2-amine]",4.1 nM
8,"COCCNC(=O)[C@]1(C)C[C@@H](Nc2nc(OC)c3c(-c4ccc5nnn(C)c5c4)ccn3n2)C1 [Compound 214, trans-3-((4-Methoxy-5-(1-methyl-1H-benzo[d][1,2,3]triazol-6-yl)pyrrolo[2,1-f][1,2,4]triazin-2-yl)amino)-N-(2-methoxyethyl)-1-methylcyclobutane-1-carboxamide]",2.2 nM
9,"COc1nc(N[C@H]2CC[C@@H](OC)CC2)nn2ccc(-c3cnc4nccn4c3)c12 [Compound 243, 5-(imidazo[1,2-a]pyrimidin-6-yl)-4-methoxy-N-(cis-4-methoxycyclohexyl)pyrrolo[2,1-f][1,2,4]triazin-2-amine]",1.2 nM
10,"COc1nc(N[C@H]2C[C@H](C(C)(C)O)C2)nn2ccc(-c3ccc4ncccc4c3)c12 [Compound 287, 2-(trans-3-((4-methoxy-5-(quinolin-6-yl)pyrrolo[2,1-f][1,2,4]triazin-2-yl)amino)cyclobutyl)propan-2-ol]",2.2 nM
11,"COc1nc(N[C@H]2C[C@@](C)(O)C2)nn2ccc(-c3ccn4nccc4c3)c12 [Compound 7, cis-3-((4-Methoxy-5-(pyrazolo[1,5-a]pyridin-5-yl)pyrrolo[2,1-f][1,2,4]triazin-2-yl)amino)-1-methylcyclobutan-1-ol]",4.6 nM
12,"N-(cis-4-((4-Methoxy-5-(quinolin-6-yl)pyrrolo[2,1-f][1,2,4]triazin-2-yl) amino)cyclohexyl)acetamide [Compound 1044]",3.2 nM
13,"COc1nc(N[C@H]2CCN(C)CC2(F)F)nn2ccc(-c3ccc4nc(C)n(CC(F)F)c4c3)c12 [Compound 139, (S)—N-(3,3-Difluoro-1-methylpiperidin-4-yl)-5-(1-(2,2-difluoroethyl)-2-methyl-1H-benzo[d]imidazol-6-yl)-4-methoxypyrrolo[2,1-f][1,2,4]triazin-2-amine]",6.9 nM
14,"CC[C@]1(O)CC[C@H](Nc2nc(OC)c3c(-c4ccc5nnn(CC(F)F)c5c4)ccn3n2)CC1 [Compound 727, (1r,4r)-4-((5-(1-(2,2-Difluoroethyl)-1H-benzo[d][1,2,3]triazol-6-yl)-4-methoxypyrrolo[2,1-f][1,2,4]triazin-2-yl)amino)-1-ethylcyclohexan-1-ol]",2.8 nM
15,"COc1nc(N[C@H](C)C2CC2)nn2ccc(-c3cnc4nccn4c3)c12 [Compound 231, (R)—N-(1-Cyclopropylethyl)-5-(imidazo[1,2-a]pyrimidin-6-yl)-4-methoxypyrrolo[2,1-f][1,2,4]triazin-2-amine]",7.2 nM
16,"COc1nc(NCC2(C)COC2)nn2ccc(-c3ccc4nnn(CC(F)F)c4c3)c12 [Compound 1144, 5-(1-(2,2-Difluoroethyl)-1H-benzo[d][1,2,3]triazol-6-yl)-4-methoxy-N-((3-methyloxetan-3-yl)methyl)pyrrolo[2,1-f][1,2,4]triazin-2-amine]",2 nM
17,"[2H]C([2H])([2H])Oc1nc(N[C@@H]2CN(C(C)=O)C[C@@H]2F)nn2ccc(-c3ccc4nccnc4c3)c12 [Compound 353, 1-((3S,4R)-3-Fluoro-4-((4-(methoxy-d3)-5-(quinoxalin-6-yl)pyrrolo[2,1-f][1,2,4]triazin-2-yl)amino)pyrrolidin-1-yl)ethan-1-one]",2.2 nM
18,"C[C@]1(O)CC[C@H](Nc2nc(OC3COC3)c3c(-c4ccc5ncnn5c4)ccn3n2)CC1 [Compound 621, (1r,4r)-4-((5-([1,2,4]Triazolo[1,5-a]pyridin-6-yl)-4-(oxetan-3-yloxy)pyrrolo[2,1-f][1,2,4]triazin-2-yl)amino)-1-methylcyclohexan-1-ol]",35.4 nM
19,"COc1nc(N[C@H]2CCN(C)CC2(F)F)nn2ccc(-c3ccc4ncccc4c3)c12 [Compound 320, (S)—N-(3,3-Difluoro-1-methylpiperidin-4-yl)-4-methoxy-5-(quinolin-6-yl)pyrrolo[2,1-f][1,2,4]triazin-2-amine]",8.2 nM
20,"COc1nc(NC23CCC(O)(CC2)C3)nn2ccc(-c3ccc4nnn(CC(F)F)c4c3)c12 [Compound 798, 4-((5-(1-(2,2-Difluoroethyl)-1H-benzo[d][1,2,3]triazol-6-yl)-4-methoxypyrrolo[2,1-f][1,2,4]triazin-2-yl)amino)bicyclo[2.2.1]heptan-1-ol]",0.3 nM
21,"COc1nc(NC2CCOC(C)(C)C2)nn2ccc(-c3cnc4nccn4c3)c12 (stereo not drawn) [Compound 1148, N-(2,2-Dimethyltetrahydro-2H-pyran-4-yl)-5-(imidazo[1,2-a]pyrimidin-6-yl)-4-methoxypyrrolo[2,1-f][1,2,4]triazin-2-amine]",0.6 nM
22,"COc1nc(N[C@@H]2C[C@@H]3CN(C(C)=O)C[C@@H]3C2)nn2ccc(-c3ccc4nccnc4c3)c12 [Compound 388, 1-((3aR,5r,6aS)-5-((4-Methoxy-5-(quinoxalin-6-yl)pyrrolo[2,1-f][1,2,4]triazin-2-yl)amino)hexahydrocyclopenta[c]pyrrol-2(1H)-yl)ethan-1-one]",1.2 nM
23,"COc1nc(N[C@H]2C[C@@](C)(NC(C)=O)C2)nn2ccc(-c3cc(F)c4nc(C)n(CC(F)F)c4c3)c12 [Compound 148, N-((1s,3s)-3-((5-(1-(2,2-Difluoroethyl)-4-fluoro-2-methyl-1H-benzo[d]imidazol-6-yl)-4-methoxypyrrolo[2,1-f][1,2,4]triazin-2-yl)amino)-1-methylcyclobutyl)acetamide]",1.8 nM
24,"CCN1CC[C@H](Nc2nc(OC)c3c(-c4ccc5nnn(CC(F)F)c5c4)ccn3n2)[C@H](F)C1 [Compound 755, 5-(1-(2,2-Difluoroethyl)-1H-benzo[d][1,2,3]triazol-6-yl)-N-((3R,4S)-1-ethyl-3-fluoropiperidin-4-yl)-4-methoxypyrrolo[2,1-f][1,2,4]triazin-2-amine]",2.3 nM
25,"COc1nc(N[C@H]2C[C@](C)(O)C2)nn2ccc(-c3ccc4nccnc4c3)c12 [Compound 330, trans-3-((4-Methoxy-5-(quinoxalin-6-yl)pyrrolo[2,1-f][1,2,4]triazin-2-yl)amino)-1-methylcyclobutan-1-ol]",2.3 nM
26,"COc1nc(N[C@H]2CC[C@@](C)(O)CC2)nn2ccc(-c3ccc4nnn(C)c4c3)c12 [Compound 224, cis-4-((4-Methoxy-5-(1-methyl-1H-benzo[d][1,2,3]triazol-6-yl)pyrrolo[2,1-f][1,2,4]triazin-2-yl)amino)-1-methylcyclohexan-1-ol]",11.3 nM
27,"COc1nc(N[C@H]2C[C@@](C)(NC(C)=O)C2)nn2ccc(-c3ccc4nccnc4c3)c12 [Compound 333, N-(cis-3-((4-Methoxy-5-(quinoxalin-6-yl)pyrrolo[2,1-f][1,2,4]triazin-2-yl)amino)-1-methylcyclobutyl)acetamide]",1.1 nM
28,"COc1nc(N[C@H]2CCN(C)C[C@H]2F)nn2ccc(-c3ccc4nnn(CC(F)F)c4c3)c12 [Compound 754, 5-(1-(2,2-Difluoroethyl)-1H-benzo[d][1,2,3]triazol-6-yl)-N-((3R,4S)-3-fluoro-1-methylpiperidin-4-yl)-4-methoxypyrrolo[2,1-f][1,2,4]triazin-2-amine]",1.7 nM
29,"COc1nc(N[C@@H]2CCN(C3COC3)CC2(F)F)nn2ccc(-c3ccc4ncnn4c3)c12 [Compound 578, (R)-5-([1,2,4]Triazolo[1,5-a]pyridin-6-yl)-N-(3,3-difluoro-1-(oxetan-3-yl)piperidin-4-yl)-4-methoxypyrrolo[2,1-f][1,2,4]triazin-2-amine]",8 nM
30,"COc1nc(N[C@@H]2CN(C(C)=O)C[C@@H]2F)nn2ccc(-c3cnc4nccn4c3)c12 [Compound 264, 1-((3S,4R)-3-Fluoro-4-((5-(imidazo[1,2-a]pyrimidin-6-yl)-4-methoxypyrrolo[2,1-f][1,2,4]triazin-2-yl)amino)pyrrolidin-1-yl)ethan-1-one]",3.5 nM
